Where “and” joins values, the source holds several entries; their conditions need not be identical. Equal values may be shown once.
What was measured:
[1] = tested on: A549 lung carcinoma cells; test: Antiproliferative activity, crystal violet assay; type: cell-based; conditions: 72 h exposure, SD in parentheses, n = 3
Protocol: (§1) The antiproliferative potential of the gold–NHC complexes was determined in A549 lung carcinoma cells, MDA-MB-231 breast cancer cells, MCF-7 breast adenocarcinoma cells, and HT-29 colon carcinoma cells (Table 1). Vero E6 African green monkey kidney cells served as a reference cell line to check for possible tumour selectivity. Auranofin (AF) was used as an established reference drug.[15,17] […]
(§2) S2.2. Cytotoxicity and Anticancer Studies
(§3) Cell culture and cytotoxicity
(§4) Cell lines were sourced from DSMZ (German Collection of Microorganisms and Cell Cultures GmbH) and maintained through standard procedures in Dulbecco's Modified Eagle Medium (DMEM) supplemented with 10% fetal calf serum and 50 mg/L gentamycin. Antiproliferative effects were assessed using a well-established assay protocol. In brief, 100 μL volumes of A549 cells (13,243 cells per mL), HT-29 cells (14,657 cells per mL), MDA-MB-231 cells (6,613 cells per mL), or MCF-7 cells (6,917 cells per mL) were transferred into the wells of 96-well plates and incubated at 37°C/5% CO2 for 72 […]
(§5) Freshly prepared stock solutions of the compounds in DMSO were diluted with the respective cell culture medium to achieve graded concentrations (final concentration of DMSO: 0.1% v/v). After 72 hours (A549, HT-29) or 96 hours (MCF-7, MDA-MB-231) of exposure, the cell biomass was assessed through crystal violet staining, and the IC50 value was determined as the concentration causing 50% inhibition of cell proliferation compared to an untreated control. Results were calculated as the mean values of three independent experiments.

[2] = tested on: HT-29 colon carcinoma cells; test: Antiproliferative activity, crystal violet assay; type: cell-based; conditions: 72 h exposure, SD in parentheses, n = 3
Protocol: as §1, §2, §3, §4, §5

[3] = tested on: MCF-7 breast adenocarcinoma cells; test: Antiproliferative activity, crystal violet assay; type: cell-based; conditions: 96 h exposure, SD in parentheses, n = 3
Protocol: as §1, §2, §3, §4, §5

[4] = tested on: MDA-MB-231 breast cancer cells; test: Antiproliferative activity, crystal violet assay; type: cell-based; conditions: 96 h exposure, SD in parentheses, n = 3
Protocol: as §1, §2, §3, §4, §5

[5] = tested on: Vero E6 African green monkey kidney cells; test: Antiproliferative activity in non-tumour reference cell line; type: cell-based; conditions: for IC50: Vero E6 non-tumour reference cell line, SD in parentheses, n = 3
Protocol: as §1, §2, §3, §4, §5

[6] = tested on: Acinetobacter baumannii DSM30007; test: Antibacterial activity (MIC, curve fitting); type: cell-based; conditions: for MIC, A.b.: Table 2, Acinetobacter baumannii DSM30007, 18 h, 37 °C; for MIC, A. baumannii: Table S12, ± standard error of the mean
Protocol: (§6) The antibacterial activity of all gold complexes was assessed against six pathogenic bacterial strains, including two Gram-positive species, i.e. Enterococcus faecium and methicillin-resistant Staphylococcus aureus (MRSA), and four Gram-negative species, i.e. Acinetobacter baumannii, Escherichia coli, Klebsiella pneumoniae, and Pseudomonas aeruginosa. Minimum inhibitory concentrations (MICs) were determined using a curve-fitting technique.
(§7) S2.1. Antibacterial Studies
(§8) Bacterial cultures were prepared by overnight aerobic incubation at 37 °C. Gram-negative strains were cultivated in Müller Hinton broth supplemented with 1% glucose at pH 7.2, while Gram-positive strains were grown in Trypticase soy yeast extract medium (TSY) with a composition of 30 g/l trypticase soy broth, 3 g/l yeast extract, and pH 7.2. The cultures were adjusted to an OD600 of 0.001, resulting in a final starting OD600 of 0.0005 for the subsequent tests. For testing, 25 μL of the prepared culture was combined with 25 μL of serially diluted test compounds in 384 well plates, following established protocols for different strains. Screening was performed at compound concentrations of 0.5, 5, and 50 µM, and for selected compounds, growth inhibition curves were recorded using DMSO stock solutions […]
(§9) Positive control compounds, namely linezolid (for MRSA strains), ciprofloxacin (for E. faecium and E. coli), and amikacin (for P. aeruginosa), were included. The maximum DMSO concentration in the assay […]
(§10) After an 18-hour incubation at 37 °C under moist conditions, the optical density at 600 nm was measured using a Fusion Universal Microplate Analyser (Perkin–Elmer, Waltham, USA). The minimum inhibitory concentration (MIC) values, representing the […]
(§11) fitting with Sigma Plot. The bacterial strains used included Gram-negative strains: Escherichia coli (DSM 1116), A. baumannii (DSM30007), K. pneumoniae (DSM111678), and Pseudomonas aeruginosa PA7 (DSM 24068); and Gram-positive strains: E. faecium (DSM20477) and Staphylococcus aureus MRSA

[7] = tested on: Enterococcus faecium DSM20477; test: Antibacterial activity (MIC, curve fitting); type: cell-based; conditions: for MIC, E.f.: Table 2, Enterococcus faecium DSM20477, 18 h, 37 °C; for MIC, E. faecium: Table S12, ± standard error of the mean
Protocol: as §6, §7, §8, §9, §10, §11

[8] = tested on: Escherichia coli DSM 1116; test: Antibacterial activity (MIC, curve fitting); type: cell-based; conditions: for MIC, E.c.: Table 2, Escherichia coli DSM 1116, 18 h, 37 °C; for MIC, E. coli: Table S12, ± standard error of the mean
Protocol: as §6, §7, §8, §9, §10, §11

[9] = tested on: Klebsiella pneumoniae DSM111678; test: Antibacterial activity (MIC, curve fitting); type: cell-based; conditions: for MIC, K.p.: Table 2, Klebsiella pneumoniae DSM111678, 18 h, 37 °C; for MIC, K. pneumoniae: Table S12, ± standard error of the mean
Protocol: as §6, §7, §8, §9, §10, §11

[10] = tested on: Pseudomonas aeruginosa DSM 24068; test: Antibacterial activity (MIC, curve fitting); type: cell-based; conditions: for MIC, P.a.: Table 2, Pseudomonas aeruginosa DSM 24068, 18 h, 37 °C; for MIC, P. aeruginosa: Table S12, ± standard error of the mean
Protocol: as §6, §7, §8, §9, §10, §11

[11] = tested on: methicillin-resistant Staphylococcus aureus DSM 11822; test: Antibacterial activity (MIC, curve fitting); type: cell-based
Protocol: as §6, §7, §8, §9, §10, §11

[12] = molecular target: TrxR from E. coli (Escherichia coli, UniProt P0A9P4); test: Inhibition of isolated bacterial TrxR, DTNB-based assay; type: biochemical; set-up: purchased Sigma-Aldrich; conditions: for TrxR activity, % of control: compounds at 0.5 µM, n = 2, Table S13; for IC50: isolated E. coli TrxR, DTNB assay, ± standard deviation, n = 3
Sequence of TrxR from E. coli (P0A9P4 2-321): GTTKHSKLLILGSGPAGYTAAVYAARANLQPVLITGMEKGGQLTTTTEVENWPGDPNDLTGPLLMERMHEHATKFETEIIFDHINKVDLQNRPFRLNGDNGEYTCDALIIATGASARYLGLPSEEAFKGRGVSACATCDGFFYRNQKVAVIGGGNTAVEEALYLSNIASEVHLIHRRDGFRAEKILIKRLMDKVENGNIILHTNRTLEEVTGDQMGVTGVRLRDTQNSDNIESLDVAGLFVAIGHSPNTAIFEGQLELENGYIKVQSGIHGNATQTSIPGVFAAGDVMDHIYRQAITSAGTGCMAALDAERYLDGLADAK
Protocol: The inhibition of isolated TrxR from E. coli was determined for the selected monocarbene gold(I/III) complexes 2a–c and 4b–c using a DTNB-based assay (Table 3). […] The inhibition of bacterial TrxR for compound 2a was investigated in our previous report (Table 3).
S2.3. Inhibition of bacterial TrxR from E. coli
The TrxR (E. coli) inhibition assay was performed according to previously published procedures.[8] The assay is partly based on the procedure developed by Lu et al[9] and makes use of the reduction of DTNB (5,5′-dithiobis-(2-nitrobenzoic acid)). Solutions of E. coli TrxR (10.1 U/mL) and E. coli thioredoxin (Trx) (312 μg/mL) (both purchased from Sigma-Aldrich) were prepared in distilled water. Stock solutions of the test compounds (2 mM) were prepared in DMSO and serially diluted with TE buffer (Tris-HCl 50 mM, EDTA 1 mM, pH 7.5). 20 μL of these solutions or TE buffer without the test compounds (positive control) were mixed with the TrxR solution (10 μL), the Trx solution (10 μL) and 100 µl of NADPH (200 μM) in TE buffer in a well on a 96-well plate. As a blank control, 200 μM NADPH in TE buffer (100 μL) mixed with a DMSO / buffer mixture (40 μL) was used (final concentrations of DMSO: 0.5% v/v). The plate was incubated for 75 min at 25°C with moderate shaking. After incubation, 100 μL of a reaction mixture (TE buffer containing 200 μM NADPH and 5 mM DTNB) was added to each well to initiate the reaction. After thorough mixing, the formation of 5-TNB was monitored by a microplate reader at 405 nm in 35 s intervals (10 measurements). The values were corrected by subtraction of the blank solution absorption values. The increase in concentration of 5-TNB followed a linear trend (r2≥ 0.990) and the enzymatic activities were calculated as the gradients (increase in absorbance per second) thereof. […]
for each test compound, where the highest test compound concentration was used and the enzyme solution was replaced by TE buffer. The inhibition is presented as the mean IC50 values and standard deviations obtained in three independent experiments.
Table S13. Activity of TrxR from E. coli in presence of compounds at 0.5 µM (n = 2, n.d.= not

[13] = Table 2, MRSA DSM 11822, 18 h, 37 °C
[14] = Table S12, ± standard error of the mean

| Compound | IC50 [1] [µM] | IC50 [2] [µM] | IC50 [3] [µM] | IC50 [4] [µM] | IC50 [5] [µM] | MIC, A.b. [6] | MIC, A. baumannii [6] [µM] | MIC, E.f. [7] | MIC, E. faecium [7] [µM] | MIC, E.c. [8] | MIC, E. coli [8] [µM] | MIC, K.p. [9] | MIC, K. pneumoniae [9] [µM] | MIC, P.a. [10] [µM] | MIC, P. aeruginosa [10] [µM] | MIC, MRSA [11, 13] | MIC, MRSA [11, 14] [µM] | TrxR activity, % of control [12] | IC50 [12] [µM] | Tumour selectivity: tumour cell lines in comparison to Vero E6 ([5]; comparison of IC50 in tumour cell lines and non-tumour Vero E6) |
| --- | --- | --- | --- | --- | --- | --- | --- | --- | --- | --- | --- | --- | --- | --- | --- | --- | --- | --- | --- | --- |
| CCOC(=O)c1cn(C)[c]([Au-]([Cl])([Cl])[Cl])[n+]1C [4c] | 17.9 | 28.4 | 14.6 | 11.1 | 20.7 | 8 µM and 8 ± 1 µM | 8.48 ± 1.33 | 17 µM and 17 ± 0 µM | 16.97 ± 0 | 34 µM and 34 ± 0 µM | 33.93 ± 0 | 34 µM and 34 ± 5 µM | 33.93 ± 5.33 | >100 | > 100 | 17 µM and 17 ± 2 µM | 16.97 ± 2.67 | 28.5 % of control | 0.381 ± 0.053 |  |
| COC(=O)c1cn(C)[c]([Au-][c]2n(C)cc(C(=O)OC)[n+]2C)[n+]1C.O=S(=O)([O-])C(F)(F)F [3b] | 5.21 | 27.7 | 34.4 | 19.2 | > 100 |  | > 100 |  | > 100 |  | > 100 |  | > 100 |  | > 100 |  | > 100 | 106 % of control |  | clear preference for the tumour cell lines |
| Cn1cc(C(=O)O)[n+](C)[c]1[Au-]([Cl])([Cl])[Cl] [4a] | 36.1 | > 90 | 47.8 | 31.8 | 42.4 | 36 ± 3 µM | 36.08 ± 2.83 | >100 µM | > 100 | 72 ± 0 µM | 72.16 ± 0 | 36 ± 6 µM | 36.08 ± 5.67 | >100 | > 100 | >100 µM | > 100 | 86.1 % of control |  |  |
| COC(=O)c1cn(C)[c]([Au-]([Cl])([Cl])[Cl])[n+]1C [4b] | 17.7 | 26.2 | 15.2 | 15.2 | 22.2 | 9 µM and 9 ± 2 µM | 8.74 ± 1.82 | 17 µM and 17 ± 0 µM | 17.49 ± 0 | 35 µM and 35 ± 0 µM | 34.97 ± 0 | 35 µM and 35 ± 0 µM | 34.97 ± 0 | >100 | > 100 | 17 µM and 17 ± 0 µM | 17.49 ± 0 | 36.5 % of control | 0.362 ± 0.033 |  |
| Cn1cc(C(=O)O)[n+](C)[c]1[Au-][c]1n(C)cc(C(=O)O)[n+]1C.[Cl-] [3a] |  |  |  |  |  |  | 31.2 ± 4.90 |  | > 100 |  | 62.4 ± 0 |  | 62.4 ± 0 |  | 62.4 ± 0 |  | > 100 |  |  |  |
| COC(=O)c1cn(C)[c]([Au-][Cl])[n+]1C [2b] | 22.7 | 19.8 | 23.8 | 12.8 |  | 10 µM and 10 ± 0 µM | 10.35 ± 0 | 10 µM and 10 ± 0 µM | 10.35 ± 0 | 41 µM and 41 ± 0 µM | 41.39 ± 0 | 41 µM and 41 ± 0 µM | 41.39 ± 0 | >100 | > 100 | 10 µM and 10 ± 0 µM | 10.35 ± 0 | 8.9 % of control | 0.293 ± 0.163 |  |
